Settings in all cases: TE-671
Assay [1] addresses Acetylcholine receptor subunit alpha (Homo sapiens) (UniProt P02708). The assay is described as follows: […] properties against human muscle type nicotinic Acetylcholine receptor (nAchr) from TE671 cells, expressed as acidity constant (pKa1). The assay is classed as functional, cell-based.
Assay [2] has the same target.
Description: Proteolytic properties against human muscle type nicotinic Acetylcholine receptor(nAchr) from TE671 cells, expressed as acidity constant (pKa2)
Assay [3] has the same target. The source holds these as a separate data set.
Description: Proteolytic properties against human muscle type nicotinic Acetylcholine receptor(nAchr) from TE671 cells, expressed as acidity constant (pKa1)
Assay [4] has the same target. The source holds these as a separate data set.
Description: Proteolytic properties against human muscle type nicotinic Acetylcholine receptor(nAchr) from TE671 cells, expressed as acidity constant (pKa3)

Sequence of Acetylcholine receptor subunit alpha (Homo sapiens) (P02708 whole entry): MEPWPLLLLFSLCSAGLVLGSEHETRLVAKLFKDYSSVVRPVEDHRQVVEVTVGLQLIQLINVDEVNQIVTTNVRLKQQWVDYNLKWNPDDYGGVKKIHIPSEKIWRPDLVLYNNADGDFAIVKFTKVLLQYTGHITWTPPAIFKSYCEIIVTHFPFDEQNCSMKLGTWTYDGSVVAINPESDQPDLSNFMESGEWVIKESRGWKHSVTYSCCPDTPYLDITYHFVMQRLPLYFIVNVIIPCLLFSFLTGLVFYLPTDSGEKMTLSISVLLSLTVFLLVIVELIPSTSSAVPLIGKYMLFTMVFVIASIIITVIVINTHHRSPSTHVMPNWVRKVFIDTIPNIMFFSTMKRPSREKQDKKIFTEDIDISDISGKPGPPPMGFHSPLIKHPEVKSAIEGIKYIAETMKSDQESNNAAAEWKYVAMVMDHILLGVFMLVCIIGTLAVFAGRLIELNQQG

In assay [1], `CCCC(=O)NC(Cc1ccc(O)cc1)C(=O)NCCCCCCCCCCCCN` (stereo unspecified) registered a pKa1 of 10.3. For the same molecule, the pKa2 in assay [2] turned out to be 11.3.

Take `CCCC(=O)NC(Cc1ccc(O)cc1)C(=O)NCCCOCCCCNCCCN` (stereo unspecified): the pKa1 in assay [3] turned out to be 9.23. Also, the pKa2 in assay [2] amounted to 10.3. The molecule also displayed a pKa3 in assay [4] of 11.3.

The molecule `CCCC(=O)NC(Cc1ccc(O)cc1)C(=O)NCCCNCCCCOCCCN` (stereo unspecified) showed a pKa1 in assay [3] of 9.47. Also, the pKa2 in assay [2] worked out at 10.2. The same molecule returned a pKa3 in assay [4] of 10.9.

`CCCC(=O)NC(Cc1ccc(O)cc1)C(=O)NCCCCCCCCNCCCN` (stereo unspecified) registered a pKa1 in assay [3] of 9.32. The molecule also gave a pKa2 in assay [2] of 10.2. This molecule registered a pKa3 in assay [4] of 11.4.

`CCCC(=O)NC(Cc1ccc(O)cc1)C(=O)NCCCNCCCCCCCCN` (stereo unspecified) returned a pKa1 in assay [3] of 9.71. In assay [2], this molecule registered a pKa2 of 10.4. In assay [4], this molecule registered a pKa3 of 11.3.

In assay [1], `CCCC(=O)NC(Cc1ccc(O)cc1)C(=O)NCCCOCCCCOCCCN` (stereo unspecified) had a pKa1 of 10. The molecule further returned a pKa2 in assay [2] of 10.9.
